Data on 20 compounds can be found in patent US9181235B2, “Substituted pyridines for modulating the WNT signaling pathway” (NOVARTIS AG, priority 2010, dated 2015).

In the first data set the test system is Wnt signaling. Description: Wnt-Luc reporter assay for pathway inhibition of Wnt signaling. The settings on record: Table 2; Wnt-Luc reporter cells co-cultured with L-cell Wnt3a cells, 24 hours. Format: cell-based, mouse (TM3 Wnt-Luc) or human (293 Wnt-Luc); not stated which. In short, it runs like this: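 Stable STF (Wnt-responsive luciferase) reporter lines, mouse TM3 or human HEK293, co-cultured with Wnt3a-producing L-cells in DMEM with 2% FBS and treated with compound for 24 h. Firefly luciferase read by Bright-Glo; IC50 taken as concentration giving 50% reduction in luminescence.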
(In a reporter assay the amount or activity of a reporter protein is the signal.)
In the case of `Cc1cc(C(=O)NCc2cnc(-c3ccnc(C(F)(F)F)c3)c(C)c2)ncc1-c1ncccc1C` [compound 96], the 50% inhibitory concentration (IC50) is above 2000 nM.
The compound `Cc1cc(-c2ncc(CNC(=O)c3cc(C)c(-c4cccc(F)c4)cn3)cc2C)ccn1` [compound 97] returned an IC50 above 1800 nM.
As to `Cc1cc(C(=O)NCc2cnc(-c3ccnc(C(F)(F)F)c3)c(C)c2)ncc1-c1cccnc1C` [compound 98], the half-inhibitory concentration (IC50) is above 1200 nM.
The same measure, in the same setting: the same measure for `Cc1cc(C(=O)NCc2cnc(-c3ccnc(C(F)(F)F)c3)c(C)c2)ncc1-c1cccc(F)c1C` [compound 99]: 1100 nM; for `CC(=O)N1CCN(c2ccc(C(=O)NCc3ccc(-c4ccnnc4)cc3)cc2)CC1` [compound 100]: above 20000 nM.

The same data set, now with this note: Wnt-Luc reporter cells co-cultured with L-cell Wnt3a cells, 24 hours, luciferase signal reduced by 50%.
Consider `O=C(NCc1cnc(-c2ccnc(C(F)(F)F)c2)c(F)c1)c1ccc(-c2cnccn2)cn1` [compound 85, N-({5-fluoro-6-[2-(trifluoromethyl)pyridin-4-yl]pyridin-3-yl}methyl)-5-(pyrazin-2-yl)pyridine-2-carboxamide], for which it took 0.22 nM to reach half-maximal inhibition (IC50).
On the same count and under the same terms, then `Cc1cc(-c2cnc(CNC(=O)c3ccc(-c4cnccn4)cn3)cc2C)ccn1` [compound 86, N-{[4-methyl-5-(2-methylpyridin-4-yl)pyridin-2-yl]methyl}-5-(pyrazin-2-yl)pyridine-2-carboxamide], with 17 nM.
Same read-out and setting: then `Cc1cc(-c2cnccn2)cnc1C(=O)NCc1ccc(-c2ccnc(C(F)(F)F)c2)nc1` [compound 87, 3-methyl-5-(pyrazin-2-yl)-N-({6-[2-(trifluoromethyl)pyridin-4-yl]pyridin-3-yl}methyl)pyridine-2-carboxamide], with 16 nM; and `Cc1cc(-c2ncc(CNC(=O)c3ccn(-c4cccc(F)c4)c(=O)c3)cc2C)ccn1` [compound 88, 1-(3-fluorophenyl)-N-{[5-methyl-6-(2-methylpyridin-4-yl)pyridin-3-yl]methyl}-2-oxo-1,2-dihydropyridine-4-carboxamide], with 4.4 nM; and `Cc1cc(-c2ccc(CNC(=O)c3ccn(-c4cccc(F)c4)c(=O)c3)cn2)ccn1` [compound 89, 1-(3-Fluorophenyl)-N-((2′-methyl-[2,4′-bipyridin]-5-yl)methyl)-2-oxo-1,2-dihydropyridine-4-carboxamide], with 12.5 nM.
`Cc1cc(CNC(=O)c2ccn(-c3cccc(F)c3)c(=O)c2)cnc1-c1ccnc(C(F)(F)F)c1` [compound 90, 1-(3-fluorophenyl)-N-({5-methyl-6-[2-(trifluoromethyl)pyridin-4-yl]pyridin-3-yl}methyl)-2-oxo-1,2-dihydropyridine-4-carboxamide]: the IC50 was 6.6 nM.
The same measure, in the same setting: then `Cc1cc(-n2ccc(CNC(=O)c3ccc(-c4cccc(F)c4)cn3)cc2=O)ccn1` [compound 91, 5-(3-fluorophenyl)-N-{[1-(2-methylpyridin-4-yl)-2-oxo-1,2-dihydropyridin-4-yl]methyl}pyridine-2-carboxamide], with 3.8 nM.
On the same count and under the same terms, then `Cc1cn(-c2ccc(CNC(=O)c3ccc(-c4ccccc4)cc3)cc2)cn1` [compound 92, N-(4-(4-methyl-1H-imidazol-1-yl)benzyl)biphenyl-4-carboxamide], with 0.5 nM; and `O=C(NCC1CCN(C(=O)c2ccnc(F)c2)CC1)c1ccc(-c2cccc(F)c2)nc1` [compound 93, N-((1-(2-Fluoroisonicotinoyl)piperidin-4-yl)methyl)-6-(3-fluorophenyl)nicotinamide], with 92 nM.
The same measure, in the same setting: then `O=C(NCC1CN(C(=O)c2ccnc(F)c2)C1)c1ccc(-c2cccc(F)c2)nc1` [compound 94, 6-(3-fluorophenyl)-N-({1-[(2-fluoropyridin-4-yl)carbonyl]azetidin-3-yl}methyl)pyridine-3-carboxamide], with 290 nM; and `Cc1cc(-c2ccc(CNC(=O)c3ccc(Oc4ccccc4)nc3)cn2)ccn1` [compound 95, N-((2′-methyl-[2,4′-bipyridin]-5-yl)methyl)-6-phenoxynicotinamide], with 420 nM.

System in a further data set: not listed separately
Description: Comparative stability in simulated gastric fluid (SGF), degradation by LCMS. In kind it is physicochemical. The settings on record: 50° C. SGF, 4 hr, LCMS UV peak areas at 254 nm. As to the method:
The stability of exemplified compounds of the invention were compared with N-(hetero)aryl, 2-(heteroy)aryl-substituted acetamides. Test compounds were dissolved or suspended in a specified media (e.g. simulated gastric fluid (SGF)). The resulting solution or suspension was kept at the testing temperature (e.g. 50° C.) for a given time (e.g. 4 hours), and the extent of degradation was quantified by LCMS using the respective UV absorption peak areas at 254 nm.
As for `Cc1cc(-c2ncc(CNC(=O)c3ccc(-c4cnccn4)cn3)cc2F)ccn1` [drawing 199], the “% degradn. @ 4 hr” value is recorded as around 0%.
`O=C(Cc1ccc(-c2ccnnc2)c(C(F)(F)F)c1)Nc1ccc(-c2cccnn2)cn1` [reference compound]: the “% degradn. @ 4 hr” value is reported as 11.5%.

The same data set, now with this note: 50° C. SGF, 8 hr, LCMS UV peak areas at 254 nm.
On to `Cc1cc(-c2ncc(CNC(=O)c3ccc(-c4cnccn4)cn3)cc2F)ccn1` [drawing 199], for which the “% degradn. @ 8 hr” value is around 0. %.
Same read-out and setting: then `O=C(Cc1ccc(-c2ccnnc2)c(C(F)(F)F)c1)Nc1ccc(-c2cccnn2)cn1` [reference compound], with 16.6%.

The same data set, now with this note: 50° C. SGF, 24 hr, LCMS UV peak areas at 254 nm.
On to `Cc1cc(-c2ncc(CNC(=O)c3ccc(-c4cnccn4)cn3)cc2F)ccn1` [drawing 199], for which the “% degradn. @ 24 hr” value is given as around 0%.
For `Cc1cc(CNC(=O)c2ccc(-c3cnccn3)cn2)cnc1-c1ccnc(C(F)(F)F)c1` [drawing 200], the “% degradn. @ 24 hr” value is reported as around 0%.
The same measure, in the same setting: then `O=C(Cc1ccc(-c2ccnnc2)c(C(F)(F)F)c1)Nc1ccc(-c2cccnn2)cn1` [reference compound], with 26.7%; and `Cc1cc(CC(=O)Nc2ccc(-c3cccc(F)c3)cn2)cnc1-c1ccnnc1` [reference compound], with 25.0%.

By IC50 is commonly meant the concentration at which inhibition is half-maximal. Low readings indicate higher potency, high ones lower potency.
